# Experimental data published in the supplement of paper PMC6045584.
# ± gives the standard deviation of the averaged measurements.
# Key:
# 2-METHOXYESTRADIOL = compound: COc1cc2c(cc1O)CC[C@@H]1[C@@H]2CC[C@]2(C)[C@@H](O)CC[C@@H]12 [2-METHOXYESTRADIOL]; test: surviving fraction relative to DMSO-only wells; higher = less growth inhibition; settings: exposure time: 5 days
# Summary of the method: (§1)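 After seeding at 250–500 cells per well in 384-well plates and a 24-hour wait, log-phase tumour cell lines were exposed without interruption for five days to inhibitors at 0.5, 1, 5, 10, 50, 100, 500 and 1000 nM. CellTiter-Glo luminescence was recorded after 10 minutes at room temperature. Viability is reported as surviving fraction, the luminescence normalised to the median of DMSO-only wells.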
# RESVERATROL = compound: Oc1ccc(/C=C/c2cc(O)cc(O)c2)cc1 [RESVERATROL]; test: as above; settings: exposure time: 5 days
# Summary of the method: as §1
Test System,surviving fraction (2-METHOXYESTRADIOL; 0.5 nM),surviving fraction (2-METHOXYESTRADIOL; 1 nM),surviving fraction (2-METHOXYESTRADIOL; 5 nM),surviving fraction (2-METHOXYESTRADIOL; 10 nM),surviving fraction (2-METHOXYESTRADIOL; 50 nM),surviving fraction (2-METHOXYESTRADIOL; 100 nM),surviving fraction (2-METHOXYESTRADIOL; 500 nM),surviving fraction (2-METHOXYESTRADIOL; 1000 nM),surviving fraction (RESVERATROL; 0.5 nM),surviving fraction (RESVERATROL; 1 nM),surviving fraction (RESVERATROL; 5 nM),surviving fraction (RESVERATROL; 10 nM),surviving fraction (RESVERATROL; 50 nM),surviving fraction (RESVERATROL; 100 nM),surviving fraction (RESVERATROL; 500 nM),surviving fraction (RESVERATROL; 1000 nM)
SYO1 SYNOVIAL,0.933 ± 0.044,0.93 ± 0.038,0.933 ± 0.017,0.961 ± 0.046,0.946 ± 0.043,0.9446 ± 0.0033,0.441 ± 0.065,0.1008 ± 0.00069,0.975 ± 0.062,0.996 ± 0.027,0.996 ± 0.04,0.991 ± 0.044,0.974 ± 0.045,1.01 ± 0.038,0.987 ± 0.039,1.01 ± 0.051
T47D BREAST,1 ± 0.053,1.02 ± 0.017,0.9847 ± 0.0046,1.01 ± 0.038,1.06 ± 0.062,1.087 ± 0.0062,0.783 ± 0.033,0.543 ± 0.037,1.06 ± 0.011,1.1 ± 0.036,1.11 ± 0.049,1.11 ± 0.017,0.997 ± 0.15,1.08 ± 0.08,1.02 ± 0.15,1.08 ± 0.16
U2OS BONE,1.03 ± 0.016,1.013 ± 0.0046,1.02 ± 0.043,1.02 ± 0.017,1.06 ± 0.017,1.01 ± 0.021,0.681 ± 0.02,0.359 ± 0.033,1.06 ± 0.018,1.04 ± 0.022,1.04 ± 0.029,1.06 ± 0.054,1.06 ± 0.031,1.08 ± 0.028,1.05 ± 0.033,1.05 ± 0.027
VCAP PROSTATE,1.01 ± 0.05,0.983 ± 0.13,0.919 ± 0.054,1.1 ± 0.08,0.999 ± 0.075,1.06 ± 0.043,0.777 ± 0.069,0.231 ± 0.059,1.02 ± 0.18,0.812 ± 0.12,0.994 ± 0.12,1.02 ± 0.13,0.901 ± 0.061,0.978 ± 0.017,0.88 ± 0.07,0.931 ± 0.18
VP229 BREAST,1.03 ± 0.077,1.09 ± 0.15,0.954 ± 0.093,1.04 ± 0.094,1.03 ± 0.15,1.18 ± 0.17,0.981 ± 0.058,0.801 ± 0.11,1.19 ± 0.11,1.32 ± 0.14,1.19 ± 0.12,1.2 ± 0.17,1.09 ± 0.18,1.22 ± 0.095,1.23 ± 0.16,1.12 ± 0.19
YAMATO SYNOVIAL,1.06 ± 0.051,1.14 ± 0.052,1.08 ± 0.079,1.16 ± 0.028,1.18 ± 0.075,1.13 ± 0.11,0.521 ± 0.04,0.445 ± 0.031,1.21 ± 0.063,1.28 ± 0.1,1.34 ± 0.064,1.27 ± 0.18,1.32 ± 0.18,1.31 ± 0.099,1.25 ± 0.073,1.15 ± 0.15
ZR751 BREAST,1.06 ± 0.12,1.04 ± 0.097,1.02 ± 0.039,1.13 ± 0.058,1.06 ± 0.048,1.04 ± 0.098,1.07 ± 0.039,0.645 ± 0.11,0.956 ± 0.028,1.08 ± 0.069,0.95 ± 0.07,1.01 ± 0.037,1.01 ± 0.1,1.03 ± 0.1,0.957 ± 0.045,1.12 ± 0.088
